According to patent US20070280915A1, “Combination Therapies Employing A Composition Comprising A Hmg Coa Reductase Inhibitor And A Vitamin B6 Related Compound” (priority 2003, published 2007):
Values joined by “and” are separate entries in the source; they are usually repeats but may differ in a detail not shown here. Equal values may be shown once. Read-outs that look alike come from different tables or passages of the source.

Columns and labels:
CYP2B6 = target: T1, CYP2B6 (Homo sapiens, UniProt P20813); assay: CYP2B6 inhibition assay (substrate EFC)
T1 sequence (P20813 1-491): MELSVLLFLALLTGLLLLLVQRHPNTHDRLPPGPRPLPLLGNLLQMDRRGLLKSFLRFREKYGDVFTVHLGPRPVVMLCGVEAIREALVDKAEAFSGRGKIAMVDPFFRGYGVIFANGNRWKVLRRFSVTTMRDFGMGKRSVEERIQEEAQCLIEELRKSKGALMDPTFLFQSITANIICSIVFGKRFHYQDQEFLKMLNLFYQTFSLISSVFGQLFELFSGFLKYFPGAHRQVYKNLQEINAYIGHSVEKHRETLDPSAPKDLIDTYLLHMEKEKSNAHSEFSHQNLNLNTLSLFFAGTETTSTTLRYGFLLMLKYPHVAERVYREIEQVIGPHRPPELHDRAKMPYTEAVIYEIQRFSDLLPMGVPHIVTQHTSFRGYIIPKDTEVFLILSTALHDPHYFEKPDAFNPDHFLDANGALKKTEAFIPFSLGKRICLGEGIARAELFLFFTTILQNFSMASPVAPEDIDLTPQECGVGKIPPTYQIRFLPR
Description: (§1) The CYP inhibition assays used microsomes (Supersomes®, Gentest Corp., Woburn, Mass.) prepared from insect cells, each expressing an individual CYP subtype (CYP1A2, CYP2A6, CYP2B6, CYP2C8, CYP2C9, CYP2C19, CYP2D6, CYP2E1 or CYP3A4) expressed from the corresponding human CYP cDNA using a baculovirus expression vector. The microsomes also incorporated supplemental cDNA-expressed human reductase and/or cytochrome b5, as these enzymes stimulate the activity of the CYPs, allowing for a reduction in the amount of enzyme required per reaction (Gentest Corp.). The assays monitored, via fluorescence detection, the formation of a fluorescent metabolite following incubation of the microsomes with a specific CYP substrate. […] Reactions (0.2 mL) were performed in 96-well microtitre plates at 37° C. in the presence of an NADPH regenerating system [NADP+, glucose-6-phosphate (G6P), glucose-6-phosphate dehydrogenase (G6PDH)] and MgCl2. […] All determinations were performed in duplicate. The reagent solutions used for all of the CYP subtype assays, except CYP2C19 and CYP3A4, were prepared by MBDI. For CYP2C19 and CYP3A4, complete reagent kits purchased from Gentest Corp. (CYP2C19/CEC: Cat. No. HTS-4000, Lot No. 1; CYP3A4/BFC: Cat. No. HTS-1000, Lot No. 1) were used to perform the assays.
(§2) Eight inhibitor and test compound concentrations were tested using 3-fold serial dilutions. The microtitre plates containing 0.1 mL/well of the latter mixture were pre-warmed to 37° C. in an incubator. […] The amount of metabolic product formed was quantified by fluorescence detection in a fluorescence plate reader utilizing excitation and emission filters that had been optimized for the detection of each metabolite.
(§3) Data Analysis—The mean of the duplicate fluorescent signals in the presence and absence (vehicle control) of each compound was calculated and corrected for the background noise. Percent inhibition was calculated as the difference in the corrected fluorescent signals in the absence and presence of the compound, divided by the corrected fluorescent signal in the absence of compound, multiplied by 100%.

CYP2A6 = target: T2, CYP2A6 (Homo sapiens, UniProt P11509); assay: CYP2A6 inhibition assay (substrate coumarin)
T2 sequence (P11509 1-494): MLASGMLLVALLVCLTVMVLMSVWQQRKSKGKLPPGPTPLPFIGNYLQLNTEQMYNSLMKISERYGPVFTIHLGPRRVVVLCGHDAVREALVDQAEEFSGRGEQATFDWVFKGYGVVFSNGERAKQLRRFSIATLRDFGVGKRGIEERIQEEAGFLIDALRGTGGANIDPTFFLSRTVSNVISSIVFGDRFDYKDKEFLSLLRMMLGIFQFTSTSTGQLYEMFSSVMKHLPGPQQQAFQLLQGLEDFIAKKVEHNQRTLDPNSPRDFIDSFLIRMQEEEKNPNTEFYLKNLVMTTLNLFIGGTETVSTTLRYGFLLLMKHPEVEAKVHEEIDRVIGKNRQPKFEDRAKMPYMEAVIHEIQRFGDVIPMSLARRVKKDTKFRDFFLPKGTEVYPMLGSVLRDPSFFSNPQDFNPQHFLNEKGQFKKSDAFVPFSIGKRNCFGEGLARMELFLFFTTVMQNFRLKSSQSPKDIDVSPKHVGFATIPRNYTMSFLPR
Description: as §1, §2, §3

CYP2E1 = target: T3, CYP2E1 (Homo sapiens, UniProt P05181); assay: CYP2E1 inhibition assay (substrate MFC); format: in vitro ADME
T3 construct: purchased Gentest Corp; host or cells: insect cells (baculovirus)
Procedure: All determinations were performed in duplicate.

[1] = tested on: patients with mild to moderate hypertension, hyperlipidemia and diabetes mellitus; assay: 14-week open-label forced dose-escalation study of P5P in hypertensive diabetics (concomitant statin); format: in vivo, human; settings: individual patient; for Chol:HDL ratio V.1 / HDL cholesterol V.1 / LDL cholesterol V.1 / Total cholesterol V.1 / Triglycerides V.1: V1: 1st visit, Week One, Day 1, on statin; for Triglycerides V.12 / Chol:HDL ratio V.12 / HDL cholesterol V.12 / LDL cholesterol V.12 / Total cholesterol V.12: V12: Last Visit, Week 14, Day 98; for Triglycerides V.12: concomitant P5P (250 to 750 mg once daily) and statin; for Chol:HDL ratio V.12 / HDL cholesterol V.12 / LDL cholesterol V.12 / Total cholesterol V.12: concomitant P5P and statin
Description: Patient Definition-Patients meeting all of the inclusion criteria and none of the exclusion criteria were eligible for enrollment. The primary inclusion criteria were hypertension and diabetes. At screening all patients must present with or have a history of, uncomplicated, stable, mild to moderate hypertension, (supine diastolic blood pressure SUDBP ≧90 and ≦114 mm Hg) regardless of use or non-use of treatment for this disease. […] The hypertensive patients must present with and have a history (>24 months) of diabetes mellitus (type 1 or 2), that is controlled or uncontrolled, at both screening and treatment initiation visits, to be eligible for inclusion in the study. Other than having diabetes and hypertension, patients must be in good health for their age. A history and physical examination must be within age-related normal limits, or if abnormal, considered clinically insignificant in the opinion of the investigator. Laboratory tests (CBC with differential, prothrombin and partial thrombo-plastin times, platelet count, and urinalysis and blood chemistry panel), must be normal, or if abnormal, considered clinically insignificant. Patients must have a normal ECG or, if abnormal, considered clinically insignificant. […] Essentially, all patients complete a fixed four-week placebo lead-in, to qualify for initiation of active treatment. Eligible patients then begin treatment with 250 mg/day of […]. This dose was administered orally on a daily basis for the next two (2) weeks, subject to dose-limiting side-effects, after which patients are force-titrated to 500 mg/day of […]. […] Thereafter, and for the final four (4) weeks of the study all patients were treated with placebo medication. […] Patients who were on anti-lipid medication prior to the initiation of the study continued their anti-lipid regime throughout the study. Primary Efficacy Evaluations • Supine diastolic blood pressure (SUDBP) measured at specified intervals; • Triglyceride, total cholesterol, LDL cholesterol, and HDL levels measured at specified intervals. […] Dosage Regimens-All patients receive treatment medication once daily, in the morning one hour before breakfast. At each dosing, the prescribed number of tablets will be taken orally, with water, to allow for the following dosing levels: The first dose of study medication is administered at clinic under the supervision of clinic personnel. Patients previously on anti-lipid therapy continued their anti-lipid regime unchanged throughout the study.

[2] = read-out: Expected Inhibitor IC50, value expected from assay validation (mean ± S.D., n ≧ 8 experiments)
[3] = read-out: Observed Inhibitor IC50

T3 sequence (P05181 whole entry): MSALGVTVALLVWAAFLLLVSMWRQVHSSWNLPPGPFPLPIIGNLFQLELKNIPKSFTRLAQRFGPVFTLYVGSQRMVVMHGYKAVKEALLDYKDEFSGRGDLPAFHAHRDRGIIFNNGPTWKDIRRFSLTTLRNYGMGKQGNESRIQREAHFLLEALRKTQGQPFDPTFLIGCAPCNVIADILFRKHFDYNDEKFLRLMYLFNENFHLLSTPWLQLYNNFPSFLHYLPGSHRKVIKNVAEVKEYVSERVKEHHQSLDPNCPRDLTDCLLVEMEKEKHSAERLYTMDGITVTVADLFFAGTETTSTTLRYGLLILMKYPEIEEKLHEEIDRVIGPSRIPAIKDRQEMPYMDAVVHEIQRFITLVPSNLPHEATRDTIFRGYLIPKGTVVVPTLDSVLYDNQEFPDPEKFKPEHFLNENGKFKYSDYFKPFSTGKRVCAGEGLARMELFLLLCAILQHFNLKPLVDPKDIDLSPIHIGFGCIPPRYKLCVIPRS

SMILES	IC50 (CYP2B6; [2]) [µM]	IC50 (CYP2B6; [3]) [µM]	IC50 (CYP2A6; [2]) [µM]	IC50 (CYP2A6; [3]) [µM]	IC50 (CYP2E1; [3]) [µM]	IC50 (CYP2E1; value expected from assay validation (mean ± S.D., n ≧ 8 experiments), read-out: Expected Inhibitor IC50) [µM]	Chol:HDL ratio V.1 [1]	HDL cholesterol V.1 [1]	LDL cholesterol V.1 [1]	Total cholesterol V.1 [1]	Triglycerides V.1 [1]	Triglycerides V.12 [1]	Chol:HDL ratio V.12 [1]	HDL cholesterol V.12 [1]	LDL cholesterol V.12 [1]	Total cholesterol V.12 [1]
N[C@@H]1C[C@H]1c1ccccc1 (racemic) [Tranylcypromine]	8.82 ± 2.43	6.59	0.99 ± 0.209	0.605												
CCN(CC)C(=S)S [DDTC, Diethyldithiocarbamic acid]					3.56	5.06 ± 1.96										
CC(C)c1c(C(=O)Nc2ccccc2)c(-c2ccccc2)c(-c2ccc(F)cc2)n1CC[C@@H](O)C[C@@H](O)CC(=O)O [Lipitor, atorvastatin]							5.0 and 2.2	43 mg/dL and 62 mg/dL	123 mg/dL and 55 mg/dL	217 mg/dL and 136 mg/dL	255 mg/dL and 96 mg/dL	179 mg/dL and 106 mg/dL	5.6 and 2.1	48 mg/dL and 75 mg/dL	183 mg/dL and 63 mg/dL	267 mg/dL and 159 mg/dL
CC[C@H](C)C(=O)O[C@H]1C[C@H](O)C=C2C=C[C@H](C)[C@H](CC[C@@H](O)C[C@@H](O)CC(=O)O)[C@H]21 [Pravachol, pravastatin]							9.5	33 mg/dL		313 mg/dL	667 mg/dL	365 mg/dL	8.4	29 mg/dL		243 mg/dL
CCC(C)(C)C(=O)O[C@H]1C[C@@H](C)C=C2C=C[C@H](C)[C@H](CC[C@@H]3C[C@@H](O)CC(=O)O3)[C@H]21 [Zocor, simvastatin]							3.9 and 6.3	39 mg/dL and 43 mg/dL	80 mg/dL and 185 mg/dL	152 mg/dL and 272 mg/dL	164 mg/dL and 222 mg/dL	212 mg/dL and 187 mg/dL	4.1 and 5.8	35 mg/dL and 40 mg/dL	68 mg/dL and 153 mg/dL	145 mg/dL and 230 mg/dL
